The text below walks through data of US11358947B2, “Substituted 2-acylamino-cycloalkylthiophene-3-carboxylic acid arylamides as inhibitors of calcium-activated chloride channel TMEM16A” (THE REGENTS OF THE UNIVERSITY OF CALIFORNIA, priority 2017, dated 2022).

One series has as its target T1, TMEM16B (Homo sapiens, UniProt Q9NQ90).
T1 construct: expressed in transfected cells; host or cells: Fischer Rat Thyroid (FRT) cells co-expressing YFP
T1 sequence (Q9NQ90 1-998): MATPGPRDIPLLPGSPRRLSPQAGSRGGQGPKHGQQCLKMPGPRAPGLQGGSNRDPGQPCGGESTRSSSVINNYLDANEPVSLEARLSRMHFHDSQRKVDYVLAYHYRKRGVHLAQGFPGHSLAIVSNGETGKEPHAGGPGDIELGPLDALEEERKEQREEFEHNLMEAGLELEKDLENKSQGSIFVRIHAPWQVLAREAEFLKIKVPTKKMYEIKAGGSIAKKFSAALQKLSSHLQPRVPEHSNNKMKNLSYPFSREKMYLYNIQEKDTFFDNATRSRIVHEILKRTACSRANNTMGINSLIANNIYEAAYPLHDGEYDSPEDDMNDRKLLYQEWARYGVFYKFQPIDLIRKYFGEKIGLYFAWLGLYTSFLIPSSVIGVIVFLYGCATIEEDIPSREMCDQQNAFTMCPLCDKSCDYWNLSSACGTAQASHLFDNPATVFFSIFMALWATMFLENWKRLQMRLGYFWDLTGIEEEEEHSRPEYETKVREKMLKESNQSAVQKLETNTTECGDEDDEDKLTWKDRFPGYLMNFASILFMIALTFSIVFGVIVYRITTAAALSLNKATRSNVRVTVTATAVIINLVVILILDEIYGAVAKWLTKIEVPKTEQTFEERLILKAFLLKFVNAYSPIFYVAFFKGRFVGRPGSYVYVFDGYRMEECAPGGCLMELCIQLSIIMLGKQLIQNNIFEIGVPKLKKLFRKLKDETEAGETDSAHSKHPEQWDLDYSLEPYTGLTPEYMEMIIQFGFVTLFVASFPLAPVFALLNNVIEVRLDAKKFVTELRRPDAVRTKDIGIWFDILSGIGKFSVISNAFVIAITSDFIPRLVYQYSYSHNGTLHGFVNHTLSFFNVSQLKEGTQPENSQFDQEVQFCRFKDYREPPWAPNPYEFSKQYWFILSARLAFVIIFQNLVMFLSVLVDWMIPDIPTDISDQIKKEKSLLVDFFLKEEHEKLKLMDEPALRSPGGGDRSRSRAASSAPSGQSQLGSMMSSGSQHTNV
The series can be described thus: TMEM16B fluorescence plate reader assay in FRT cells. It counts as cell-based. As to the method: Concentration-dependent inhibition of TMEM16A measured by short-circuit current assay; TMEM16B and non-TMEM16 anion conductance measured using a fluorescence plate reader assay using FRT and HT-29 cells respectively; cell viability measured in FRT null cells.
We further assayed the compound potency on endogenous non-TMEM16A. Ca^2+-activated Cl^− channel in HT-29 cells.
TMEM16A functional assay. TMEM16A functional plate-reader assay was done as previously described. […] Test compounds (0.5 μl in DMSO) were added to each well at specified concentration. […] The initial rate of I− influx following each of the solution additions was computed from fluorescence data by nonlinear regression. TMEM16B activity was assayed similarly as described using FRT cells co-expressing YFP and TMEM16B.

A short description of series [1]: In vitro metabolic stability with rat liver microsomes and NADPH. It counts as in vitro ADME. As to the method:
(3B) LC/MS traces showing total ion counts as a function of incubation time.
These compounds were incubated with rat liver microsomes and NADPH, and non-metabolized compounds were quantified by ESI-LCMS. […] It is speculated that Ani-9 could be oxidized at the aryl methyl or N—N bond; or hydrolyzed at the amide or hydrazone linkages.
Compounds (each 10 uM) were incubated for specific time points (2, 5, 15, 30, 60, 180 min) with shaking at 37° C. with rat liver microsomes (1 mg protein/mL, Sigma-Aldrich, St. Louis, Mo.) in potassium phosphate butler (100 mM) containing 1 mM NADPH. The mixture was then chilled on ice, and 0.5 mL of ice-cold ethyl acetate was added. Samples were centrifuged for 15 min at 3000 RPM. The supernatant was evaporated to dryness, and the residue was dissolved in 80 μL of mobile phase (acetonitrile:/water, 3:1, containing 0.1% formic acid) for LC/MS. Reverse-phase HPLC separation was carried out using a Waters C18 column (2.1 mm×100 mm, […]) equipped with a solvent delivery system (Waters model 2690, Milford, Mass.).
A general note: Liver microsomes are vesicles of endoplasmic reticulum, rich in cytochrome P450 enzymes.

Series [2] has as its system rat made hypertensive with phenylephrine. The series can be described thus: Blood pressure in anesthetized rat made hypertensive with phenylephrine. Type of series: in vivo. As to conditions: phenylephrine 0.25 mg IV, then 0.3 mg compound IV, femoral artery catheter. As to the method: TMEM16A is expressed in vascular smooth muscle and its inhibition may reduce blood pressure. […] Blood pressure was measured by femoral artery catheter.

A short description of series [3]: Pharmacokinetics in rats, serum concentration after IP or oral dosing. It counts as in vivo. Particulars: rat. As to the method:
The pharmacokinetics of compounds according to certain embodiments was studied in rats. […] After treatments blood samples were collected by tail vein puncture at specified time points (15, 30, 60, 120 and 180 min). Serum was separated by centrifuging blood samples at 5000 rpm for 15 min. […] The aliquot was then diluted to a total of 2 mL in PBS. A C18 solid-phase extraction (SPE) column (Thermo Fisher, Waltham, Mass.) was conditioned with methanol (2 mL) and PBS (2 mL). The aliquot was loaded onto the conditioned SPE column, and washed with PBS (2 mL) followed by water (2 mL), and the column then dried under vacuum for 5 min. Analytes were eluted with ethyl acetate (3 mL), and concentrated by rotary evaporation. The residues were reconstituted into methanol (150 μL), and then analyzed using a hybrid quadrupole Q-Exactive Orbitrap mass analyzer (Thermo Fisher, Waltham, Mass.), with an electrospray ionization source, employing parallel-reaction monitoring (PRM) to provide high analytical sensitivity.

The subject of a further series is mouse ileum. The series can be described thus: Ex vivo intestinal contractility of mouse ileum. As to conditions: increasing concentrations added to bath. As to the method: The effect of a compound according to one embodiment on intestinal contractility was determined in an ex vivo preparation of mouse ileum. Adult mice (CD1 genetic background) were euthanized by avertin overdose (200 mg/kg, 2,2,2-tribromethanol, Sigma-Aldrich) and ileal segments of ˜2 cm length were isolated and washed with Krebs-Henseleit buffer (pH 7.4, in mM: 118 NaCl, 4.7 KCl, 1.2 MgSO4, 1.2 KH2PO4, 25 NaHCO3, 2.5 CaCl2, 11 D-glucose). […] Tissues were stabilized for 60 min with resting tension of 0.5 g and solutions were changed every 15 min.

Entries after “also recorded” stand apart in the source; their conditions may differ.

As a reminder, the IC50 is the point on the concentration scale where inhibition reaches its midpoint. A low value points to inhibition by little substance.

Compound `Cc1ccccc1NC(=O)c1c(NC(=O)C(F)(F)F)sc2c1CCCCC2` [Compound 6aa, 2-(2,2,2-Trifluoro-acetylamino)-5,6,7,8-tetrahydro-4H-cyclohepta[b]thiophene-3-carboxylic acid o-tolylamide] returned an IC50 on TMEM16B of 1400 nM.
`Cc1ccccc1NC(=O)c1c(NC(=O)C(F)(F)Br)sc2c1CCCCC2` [Compound 6bm, 2-(2-Bromo-2,2-difluoro-acetylamino)-5,6,7,8-tetrahydro-4H-cyclohepta[b]thiophene-3-carboxylic acid o-tolylamide]: the Compound remaining in series [1] (rat liver microsomes + NADPH, 10 uM, 180 min) is approximately 30%. For the same compound, in series [1] (time course of compound degradation, rat liver microsomes), the “Metabolic stability compared to Ani-9 (in words)” value is “remarkably greater stability”. Moreover, in series [2], the “Effect on blood pressure” value is “acute reduction in blood pressure”. For the same compound, the “Toxic effect (in words)” value in series [3] (4 mg/kg IP or oral) is “No toxic effect was seen”. Moreover, the Serum concentration entry was “greater than 3.5 μM” in series [3] (4 mg/kg intraperitoneal, for up to 2 h) and “greater than 0.5 μM” in series [3] (4 mg/kg oral, for 3 h). Besides, the Peak serum concentration in series [3] (4 mg/kg intraperitoneal, peak at 60 min) stood at 6.5 µM; in series [3] (4 mg/kg oral, peak at 2 h) it was 1.9 µM. In addition, in series [3] (after intraperitoneal (IP) or oral administration (PO)), the “Detectability in serum (in words)” value was “detectable at pharmacologically relevant concentrations”. The “Effect on spontaneous isometric contractions of ileum” value with mouse ileum is recorded as “strongly inhibited; also recorded: suppression of isometric smooth muscle contractions”.
